Measured values as given in patent US20130071547A1, “LOW CALORIC FAT REPLACERS” (NESTEC S.A., priority 2009, published 2013).
“Also recorded” adds a separate entry of the source. Where two headings read alike, the source gives them in different places.

Tests used:
GPR40 [1] = biological target: T1, GPR40 (Homo sapiens, UniProt O14842); assay: Calcium response of Chem-1 cells stably expressing GPR40 (calcium sensitive dye, Flex station); format: cell-based
T1 construct: expressed in transfected cells; host or cells: Chem-1 (Chem1) cells stably expressing GPR40
T1 sequence (O14842 whole entry, species assumed): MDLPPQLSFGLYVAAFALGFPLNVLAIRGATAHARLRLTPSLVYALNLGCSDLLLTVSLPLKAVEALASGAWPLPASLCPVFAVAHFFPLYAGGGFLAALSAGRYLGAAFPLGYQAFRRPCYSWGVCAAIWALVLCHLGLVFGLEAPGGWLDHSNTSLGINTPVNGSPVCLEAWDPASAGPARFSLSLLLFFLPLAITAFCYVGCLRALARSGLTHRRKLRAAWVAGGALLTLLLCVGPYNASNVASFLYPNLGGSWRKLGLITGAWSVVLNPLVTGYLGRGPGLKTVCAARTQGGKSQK
Source text: The calcium response of Chem-1 cells stably expressing GPR40 to increasing concentration of 12-Methyltridecanal is shown.
To determine if 12-Methyltridecanal is an agonist of GPR40, Chem1 cells stably expressing GPR40 were loaded with a calcium sensitive dye, stimulated with increasing concentrations of 12-Methyltridecanal, and their calcium response measured using a Flex station.

wild type Chem1 cells = assay: Calcium response of wild type Chem1 cells (control cells); format: cell-based
subjects [2] = assay: 2-Alternative forced choice test of the fattiness of 12-Methyltridecanal; format: in vivo, human
Protocol: 12-Methyltridecanal was dissolved in 0.5% ethanol in water. Control samples were 0.5% ethanol in water. Three concentrations were tested. For each concentration thirty nine subjects wearing nose clips were presented with one cup containing the compound and one control cup in a random order. The subjects were asked to identify which sample is fattier. The significance level is shown with a solid line.
2-Alternative forced choice tests were used to test the fattiness of 12-Methyltridecanal. Thirty nine subjects were presented with two cups, one with a solution containing 12-Methyltridecanal and the other vehicle alone. The subjects were wearing nose clips, and were asked which sample is fattier. A significant number of participants found the sample containing the highest concentration of 12-Methyltridecanal fattier (28 out of 39 subjects, p<0.01) (FIG. 5).

subjects [3] = assay: Triangle tests with GPR40 agonists (identify the odd sample); format: in vivo, human; details: highest concentration tested, 0.5% ethanol in water, nose clips; for participants who correctly identified the odd sample: one compound cup and two control cups; for identification of the sample with the compound as the odd sample (significance): 21 subjects
Protocol: The GPR40 agonist (Compound 5 or Compound 20) was dissolved in 0.5% ethanol in water. Control samples were 0.5% ethanol in water. Three concentrations for compound 5 and four concentrations for compound 20 were tested. For each concentration twenty one subjects wearing nose clips were presented with one cup containing the compound and two control cups in a random order. The subjects were asked to identify the odd sample. […] The significance level is shown with a dashed line. * p<0.01, ** p<0.0001
Triangle tests were used with 21 subjects to determine if solutions containing Compound 5 or Compound 20 taste different from solutions with the same vehicle but without compounds. The subjects, wearing nose clips, were presented with three samples in random order, one containing the agonist, and two control solutions, and were asked to identify the odd sample. Eighteen out of 21 participants correctly identified the highest concentration of compound 5 (p<0.0001), and 13 out of 21 correctly identified the highest concentration of Compound 20 (p<0.01) (FIG. 3).

subjects [4] = assay: Description of the sensory attributes of GPR40 agonists by untrained subjects; format: in vivo, human; details: for SUMMARY of the comments (sensory attributes): eight subjects with nose clips; for sensory attributes described by most participants: 0.5% ethanol solutions, untrained subjects with nose clips; for fatty mouth sensation (overall conclusion of Example 2): conclusion from triangle and descriptive tests
Source text: In a different experiment, untrained subjects were asked to describe the sensory attributes of the agonists. The majority of participants described the molecules as creamy, oily, or providing mouth and lip coating (Tables 2 and 3).
Eight subjects wearing nose clips were presented with 0.5% ethanol solutions containing agonists of GPR40 and asked to describe them.

GPR40 [5] = biological target: T1, GPR40; details: cited from earlier work
subjects [6] = assay: Descriptive information on taste, texture and after taste of compound 20; format: in vivo, human; details: 51.2 μM in 0.5% ethanol, nose clips; for Taste (descriptor: number of subjects): wrapped cell: 'Slightly savoury: 1'; for Texture (descriptor: number of subjects): wrapped cells: 'Slightly viscous: 2', 'Slightly coats the mouth: 2'
Protocol: Six subjects wearing nose clips were presented with 0.5% ethanol in water (warm up sample) or 51.2 μM compound 20 in 0.5% ethanol (reference sample). Participants were asked to describe, avoiding hedonic terms, the taste, texture and aftertaste of the reference sample. Five out of 6 subjects found texture attributes compatible with the texture of fat.

subjects [7] = assay: 2-Alternative forced choice test, which solution tastes fattier (Medica 16, rosiglitazone); format: in vivo, human; details: agonist solution vs water, 40 subjects, p<0.05
Protocol: A correct choice is defined as choosing as fattier the sample containing the test ingredients. Medica 16 and rosiglitazone were assessed independently at three concentration, 10 μM, 50 μM and 100 μM.
Forty subjects were given two solutions one containing the agonist and the other water, and asked which one tastes fattier.

Q: For CC(C)CCCCCCCCCCC=O [12-Methyltridecanal], which “calcium response to increasing concentrations” value (GPR40 [1]) is on record?
A: clear dose-dependant response

Q: And the “calcium response to increasing concentrations” value (wild type Chem1 cells)?
A: do not respond; also recorded: did not respond

Q: What about the “fatty taste effect versus control” value (subjects [2]; 10 μM (lowest concentration), 39 subjects, 0.5% ethanol in water, nose clips) of the same compound?
A: no significant effect

Q: And the “subjects choosing the sample with the compound as fattier than control (correct choice)” value (subjects [2]; 50 μM, 39 subjects, trend, p<0.05, not significant when taking into consideration multiple testing)?
A: 26

Q: What about the “subjects choosing the sample with the compound as fattier than control” value (subjects [2]; 100 μM (highest concentration), 39 subjects, 0.5% ethanol in water, nose clips, p<0.0087 (p<0.01)) of the same compound?
A: 28 subjects

Q: And the “fatty mouth sensation (overall conclusion of Example 2)” value (subjects [2]; conclusion from 2-Alternative forced choice test)?
A: impart a fatty mouth sensation

Q: Which results are given for CC#CC(CC(=O)O)c1ccc(OCc2cc(-c3ccccc3)oc2C)cc1 (stereo not drawn) [Compound 5]?
A: participants who correctly identified the odd sample (subjects [3]): Eighteen; identification of the sample with the compound as the odd sample (significance) (subjects [3]): a significant number of subjects were able to identify the sample with the compound as the odd sample; SUMMARY of the comments (sensory attributes) (subjects [4]; 40 μM in 0.5% ethanol, agreement over most participants on mouth coating, creaminess): Bitter; also recorded: Astringent/tingling; also recorded: Slight mouth coating, Creaminess; also recorded: Persistent; sensory attributes described by most participants (subjects [4]): agreement from most participants on the creaminess, mouth and lip coating; fatty mouth sensation (overall conclusion of Example 2) (subjects [4]): impart a fatty mouth sensation; GPR40 agonist activity (GPR40 [5]; as described in patent WO2005/086661): GPR40 agonist activity was demonstrated

Q: Which “subjects who found texture attributes compatible with the texture of fat” value (subjects [6]) does the source give for Cc1ccccc1C#Cc1ccc(CCC(=O)O)cc1 [Compound 20] here?
A: Five

Q: What about the “Others (comments)” value (subjects [6]; six subjects, wrapped cell: 'Slightly burning, hot, at the side of the tongue after spitting out.') of the same compound?
A: Slightly burning,

Q: What about the “Taste (descriptor: number of subjects)” value (subjects [6]; six subjects) of the same compound?
A: Slightly

Q: And the “Taste (descriptor: number of subjects)” value (subjects [6]; six subjects, no taste noted)?
A: None: 5

Q: What about the “After taste (descriptor: number of subjects)” value (subjects [6]; six subjects, wrapped cells: 'Astringent at the back of the throat', 'Bitter - Very slightly') of the same compound?
A: None: 3

Q: What about the “Texture (descriptor: number of subjects)” value (subjects [6]; six subjects) of the same compound?
A: Slightly

Q: What about the “Texture (descriptor: number of subjects)” value (subjects [6]; six subjects, a bit oily texture) of the same compound?
A: A bit oily: 1

Q: What about the “Texture (descriptor: number of subjects)” value (subjects [6]; six subjects, greasy texture) of the same compound?
A: Greasy: 2

Q: And the “Texture (descriptor: number of subjects)” value (subjects [6]; six subjects, no texture noted)?
A: None: 1

Q: What about the “Texture (descriptor: number of subjects)” value (subjects [6]; six subjects, slightly coats the mouth) of the same compound?
A: Slightly coats

Q: What about the “Texture (descriptor: number of subjects)” value (subjects [6]; six subjects, waxy texture) of the same compound?
A: Waxy: 1

Q: What about the “participants who correctly identified the odd sample” value (subjects [3]) of the same compound?
A: 13 out of 21

Q: And the “identification of the sample with the compound as the odd sample (significance)” value (subjects [3])?
A: a significant number of subjects were able to identify the sample with the compound as the odd sample

Q: What about the “SUMMARY of the comments (sensory attributes)” value (subjects [4]; 51.2 μM in 0.5% ethanol, agreement over most participants on lip coating, creamy) of the same compound?
A: Coating the lips, creamy; also recorded: Slightly bitter

Q: What about the “sensory attributes described by most participants” value (subjects [4]) of the same compound?
A: agreement from most participants on the creaminess, mouth and lip coating

Q: And the “fatty mouth sensation (overall conclusion of Example 2)” value (subjects [4])?
A: impart a fatty mouth sensation

Q: What about the GPR40 agonist activity (GPR40 [5]; as described in Christiansen et al, Journal of Medicinal Chemistry, 2008, 51, 7061-7064) of the same compound?
A: GPR40 agonist activity was demonstrated

Q: With CCCCC/C=C\C/C=C\CCCCCCCC(=O)O [Linoleic acid] as the compound, how does the “SUMMARY of the comments (sensory attributes)” value (subjects [4]; 450 μM in 0.5% ethanol, r7 continues in r8 ('texture.')) read?
A: Astringent. Pungent; also recorded: Some mentions on creamy, viscous

Q: Which “sample with agonist chosen as tasting fattier than control” value (“sample with agonist chosen” for short) (subjects [7]; 50 μM) does the source give for CC(C)(CCCCCCCCCCC(C)(C)CC(=O)O)CC(=O)O [Medica 16] here?
A: significantly chosen as fattier than control solution; also recorded: more subjects found the solution with agonists to taste fattier

Q: What about the “sample with agonist chosen” value (subjects [7]; 100 μM) of the same compound?
A: significantly chosen as fattier than control solution; also recorded: more subjects found the solution with agonists to taste fattier

Q: For CN(CCOc1ccc(CC2SC(=O)NC2=O)cc1)c1ccccn1 (stereo not drawn) [Roziglitazone], which “sample with agonist chosen” value (subjects [7]; 50 μM) is on record?
A: more subjects found the solution with agonists to taste fattier

Q: And the “sample with agonist chosen” value (subjects [7]; 50 μM, listed as rosiglitazone)?
A: significantly chosen as fattier than control solution

Q: What about the “sample with agonist chosen” value (subjects [7]; 100 μM) of the same compound?
A: more subjects found the solution with agonists to taste fattier

Q: What about the “sample with agonist chosen” value (subjects [7]; 100 μM, listed as rosiglitazone) of the same compound?
A: significantly chosen as fattier than control solution
